Source: publication PMC6154339, “Synthesis, Characterization, Antimicrobial and Antiproliferative Activity Evaluation of Cu(II), Co(II), Zn(II), Ni(II) and Pt(II) Complexes with Isoniazid-Derived Compound” (Molecules : A Journal of Synthetic Chemistry and Natural …, 2017)
In brackets after ≈: the same amount, converted by molar mass. Like-named read-outs stand apart in the source and are kept apart here.

Experiments:
[1] = in vivo; details: Daphnia magna
[2] = test system: NCI-H1573 lung adenocarcinoma cell line; experiment: Alamar blue cell viability assay; type: cell-based; details: 48 h treatment, relative to untreated control; for Viability %: 10 µM
Protocol: (§1) Compounds HL, 1, 5, 6 and 8 were dissolved in dimethyl sulfoxide (DMSO; Sigma-Aldrich, Ayrshire, UK) and stored at 2–8 °C. Compounds 2, 3, 4 and 7 were dissolved in pyridine (Fluka, Munich, Germany). A stock solution of 10 mM in the proper solvents was prepared; as for the final concentration (10 µM), successive dilution of the stock solution with culture medium was made.
(§2) The breast cancer cell lines were cultured as follow: MCF-7 human breast cancer cell line (ATCC, Rockville, MD, USA) was cultured in EMEM (Sigma Aldrich, Munich, Germany) supplemented with 10% FCS (fetal bovine serum, PromoCell, Heidelberg, Germany), 1% penicillin-streptomycin (Pen/Strep, 10,000 IU/mL; PromoCell, Heidelberg, Germany), 1% nonessential amino acids and 1% glutamine (PromoCell, Heidelberg, Germany). SKBR-3 human breast cancer cell line was cultured in McCoy’s 5a Medium Modified (Sigma Aldrich, Munich, Germany) supplemented with 10% FCS (fetal bovine serum, PromoCell, Heidelberg, Germany), 1% penicillin-streptomycin (Pen/Strep, 10,000 IU/mL; PromoCell, Heidelberg, Germany). A375 human melanoma cell line was cultured in DMEM containing 15% FCS (fetal bovine serum, PromoCell, Heidelberg, Germany) and 1% penicillin-streptomycin (Pen/Strep, 10,000 IU/mL; PromoCell, Heidelberg, Germany). Cells were maintained at an atmosphere of 5% CO2 at 37 °C. NCI-H1573 lung adenocarcinoma cell line was cultured in RPMI-1640 Medium (ATCC, Rockville, MD, USA) supplemented with 10% FCS (fetal bovine serum, PromoCell, Heidelberg, Germany), 1% penicillin-streptomycin (Pen/Strep, 10,000 IU/mL; PromoCell, Heidelberg, Germany).
(§3) All tested cell lines were seeded onto a 96-well microplate ([…]) and left overnight to attach to the bottom of the well. After 24 h, the amount of 150 μL of the tested substances dissolved into the culture medium was added and cells were incubated for 48 h. After the incubation period, a volume of 15 μL of the Alamar blue (BioSource, Camarillo, CA, USA) solution was added. After another 10 h of incubation at 37 °C, the samples were spectrophotometrically analyzed using a microplate reader. The wave lengths used were 570 nm and 600 nm, respectively. Wells with untreated cells were used as controls. The highest concentration of DMSO and pyridine (0.1%) used to prepare stock solutions was also tested, in order to identify the solvent activity. All measurements were performed in triplicate and data were presented as mean ± standard deviation.

[3] = test system: MCF-7 human breast cancer cell line; experiment: Alamar blue cell viability assay; type: cell-based; details: 48 h treatment, relative to untreated control; for Viability %: 10 µM
Protocol: as §1, §2, §3

[4] = test system: A375 human melanoma cell line; experiment: Alamar blue cell viability assay; type: cell-based; details: relative to untreated control; for Viability %: 48 h treatment, 10 µM
Protocol: as §1, §2, §3

[5] = test system: SKBR-3 human breast cancer cell line; experiment: Alamar blue cell viability assay; type: cell-based; details: relative to untreated control; for Viability %: 48 h treatment, 10 µM
Protocol: as §1, §2, §3

[6] = Solubility in compendial aqueous media; type: physicochemical; details: 37 °C, mean ± standard deviation, n = 3; for solubility at 30 min: kinetic from dmso stock; for solubility in compendial media: 30 min
Protocol: Solubility assessment was conducted in compendial aqueous solutions prepared according to United States Pharmacopoeia USP39/NF34): hydrochloric acid 0.1 N pH 1.2, acetate buffer pH 4.5 and phosphate buffer 6.8. These buffer systems are routinely used for screening of drug dissolution testing and they simulate the pH values of proximal gastrointestinal regions. The standard samples were prepared by diluting the stock solution of 80 µg/mL in dimethyl sulfoxide (with 0.2% pyridine, v/v) with corresponding media. The reagents were of analytical grade and used as received.
The assay was performed using a SpectraMax Plus 84 Plate reader reader (Sunnyvale, CA, USA), Molecular Devices LLC (US), equiped with SoftMax software version 6.4.2 (Sunnyvale, CA, USA). Separate plates were loaded with standard solutions in nine concentrations (0.2 to 80 µg/mL). For evaluation of the aqueous solubility, the samples were prepared in triplicate by adding 10 µL of the stock solution to the wells loaded with 190 µL of each buffer, using MultiScreen HTS plates (PCF, code MSSLBPC, Merck Millipore, Darmstadt, Germany). After 30 minutes of incubation at 37 ± 0.5 °C under agitation (250 rpm, IKA KS 4000 ic control, IKA, Staufen, Germany), the plates were filtrated under vacuum using a Vac-Man 96 Vacuum manifold (Promega Corporation, Madison, WI, USA). The solutions were collected in V-bottom polypropylene 96-well microplates (Greiner Bio-One, Kremsmünster, Austria). Volumes of 100 µL were transferred to UV-Star 96-well microplate with flat bottom (Chimney well, Grained Bio-One) and diluted by addition of 100 µL of the corresponding medium. The absorbance corresponding to each well was determined at fixed wavelengths: 280, 300, 320, 340, 360 and 800 nm. The reduced value of absorbance, calculated by the sum of the values recorded at the six wavelengths, were used for the calibration curve and subsequent determination of concentration in each solubility sample.

[7] = test system: Daphnia magna
[8] = test system: Klebsiella pneumoniae, ATCC 31,488; experiment: Antibacterial activity, serial dilutions in liquid broth (MIC/MBC); type: cell-based; details: K. pneumoniae (G −)
Excerpt: (§4) All synthesized complexes and the ligand were screened for their in vitro antibacterial activity against Gram-positive bacteria (Staphylococcus aureus), Gram-negative bacteria (Escherichia coli, Klebsiella pneumoniae) and antifungal activity (Candida albicans) strains using the paper disc diffusion technique (for the qualitative determination) and the serial dilutions in liquid broth method (for determination of MIC). Furacillinum and nystatine were used as standard drugs.
(§5) The antibacterial activity of complexes and also of their prototype furacilin has been determined under liquid nutritive environment (2% of peptonate bullion (pH 7.0)) using the successive dilutions method. Escherichia coli, Klebsiella pneumoniae, and Staphylococcus aureus stems were used as reference culture for the in vitro experiment. The dissolution of studied substances in dimethylformamide, microorganism cultivation, suspension obtaining, determination of minimal inhibition concentration (MIC) and minimal bactericide concentration (MBC) have been carried out according to the method previously reported.

[9] = test system: Staphylococcus aureus, ATCC 25923; experiment: as above; type: cell-based; details: S. aureus (G +)
Excerpt: as §4, §5

[10] = test system: Escherichia coli, ATCC 25922; experiment: as above; type: cell-based; details: E. coli (G −)
Excerpt: as §4, §5

[11] = test system: Candida albicans; experiment: Antifungal (antimycotic) activity, liquid Sabouraud medium (MIC/MBC); type: cell-based; details: C. albicans
Excerpt: as §4
Antimycotic properties of the complexes were investigated in vitro on laboratory stem Candida albicans. The activity has been determined in a liquid Sabouraud nutritive environment (pH 6.8). The inoculates were prepared from fungi stems which were harvested over 3–7 days. Their concentration in suspension is (2–4) × 10^6 colonies form unities in milliliter. Sowings for levures and micelles were incubated at 37 °C during 7 and 14 days, respectively.

[12] = Qualitative solubility in organic solvents; type: physicochemical
[13] = Hydrochloric Acid 0.1 N (pH = 1.2)

SMILES	LC50 ([7]; incubation period 24 h) [µM]	LC50 ([7]; incubation period 48 h) [µM]	MBC [8] [µg/mL]	MIC [8] [µg/mL]	MBC [9] [µg/mL]	MIC [9] [µg/mL]	MBC [10] [µg/mL]	MIC [10] [µg/mL]	Viability % [2] [%]	Viability % [3] [%]	Viability % [4] [%]	Viability % [5] [%]	solubility in compendial media ([6]; Acetate Buffer (pH = 4.5)) [µg/mL]	solubility in compendial media [6, 13] [µg/mL]	solubility in compendial media ([6]; Phosphate Buffer (pH = 6.8)) [µg/mL]	MBC [11] [µg/mL]	MIC [11] [µg/mL]	solubility in organic solvents (qualitative) [12]	also measured
COc1cccc(/C=N/NC(=O)c2ccncc2)c1O [HL, N-isonicotinoyl-N′-(3-metoxy-2 hydroxybenzaldehyde)-hydrazone]	–	–	–	–	–	–	–	–	–	–	–	–	–	–	–	–	–	–	LC50 ([1]; LC50, incubation period 24 h): 53.1 µM; LC50 ([1]; LC50, incubation period 48 h): 52.6 µM; viability at 10 µM ([2]; Homo sapiens, NCI-H1573, 48 h): 29.2%; viability at 10 µM ([3]; Homo sapiens, MCF7, 48 h): 21.5%; viability at 10 µM ([4]; Homo sapiens, A-375, 48 h treatment): 82.4%; viability at 10 µM ([5]; Homo sapiens, SK-BR-3, 48 h treatment): 76.3%; solubility at 30 min ([6]; aqueous buffer, Acetate Buffer (pH = 4.5)): 3.49 ± 0.41 µg/mL (≈ 12.9 µM); solubility at 30 min ([6]; aqueous buffer, Phosphate Buffer (pH = 6.8)): 0.25 ± 0.02 µg/mL (≈ 0.922 µM); solubility at 30 min ([6]; simulated gastric fluid, Hydrochloric Acid 0.1 N (pH = 1.2)): 2.02 ± 0.02 µg/mL (≈ 7.45 µM)
CC(=O)[O-].COc1cccc(C=NNC(=O)c2ccncc2)c1[O-].[Cu+2] [complex 2, [Cu(L)(CH3COO)]]	69.6	13.1	500	500	0.015	0.015	500	500	7.22	2.10	0.73	6.88	1.27 ± 0.06	1.75 ± 0.54	<0.2	250	125	soluble in pyridine and is partially soluble in ethanol, methanol, acetonitrile, acetone, DMF and DMSO	–
COc1cccc(C=NNC(=O)c2ccncc2)c1[O-].COc1cccc(C=NNC(=O)c2ccncc2)c1[O-].[Co+2] [complex 5, [Co(L)2]]	278	2.38	500	500	0.7	0.7	500	250	89.79	55.61	88.96	76.68	1.62 ± 0.72	<0.2	<0.2	250	125	soluble in pyridine, DMF and DMSO, and is partially soluble in ethanol, methanol, acetonitrile, acetone	–
COc1cccc(C=NNC(=O)c2ccncc2)c1[O-].O.O=[N+]([O-])[O-].[Cu+2] [complex 3, [Cu(L)(NO3)]·H2O]	317	5.61	500	500	0.15	0.07	500	500	12.14	2.44	1.59	62.65	1.69 ± 0.18	0.92 ± 0.11	<0.2	3	1.5	soluble in pyridine and is partially soluble in ethanol, methanol, acetonitrile, acetone, DMF and DMSO	–
